From ChEMBL document CHEMBL1201862, “PubChem BioAssay data set” (2004)
Activity calls are given as the source filed them.

What was measured:
Trypsin = Trypsin (Sus scrofa, UniProt P00761); experiment: trypsin protease activity blockade – biochemical, quenched peptide fluorescence, cherry-pick, selectivity assay for Rce1 protease inhibitor project, dose response (AID 488789)
[1] = HEK-293T viability loss, compound-treated – cell-based, uHTS hits, cytotoxicity control for B/T-cell NF-kB inhibitor project, dose response (AID 489019); format: functional;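 note: IC50 reflects cytotoxicity as loss of cell viability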
INS1 = experiment: INS-1E survival protection against cytokine death – cell-based, luminescence, retest, dose response (AID 449756); format: functional; details: Rattus norvegicus;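 note: cell death triggered by IL-1 beta plus TNF-alpha plus IFN-gamma mixture; protective hits raise ATP signal compared with cytokine alone wells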
CAAX prenyl protease 2 [2] = target: T1, CAAX prenyl protease 2 (Saccharomyces cerevisiae S288c, UniProt Q03530); format: biochemical
T1 sequence (Q03530 whole entry): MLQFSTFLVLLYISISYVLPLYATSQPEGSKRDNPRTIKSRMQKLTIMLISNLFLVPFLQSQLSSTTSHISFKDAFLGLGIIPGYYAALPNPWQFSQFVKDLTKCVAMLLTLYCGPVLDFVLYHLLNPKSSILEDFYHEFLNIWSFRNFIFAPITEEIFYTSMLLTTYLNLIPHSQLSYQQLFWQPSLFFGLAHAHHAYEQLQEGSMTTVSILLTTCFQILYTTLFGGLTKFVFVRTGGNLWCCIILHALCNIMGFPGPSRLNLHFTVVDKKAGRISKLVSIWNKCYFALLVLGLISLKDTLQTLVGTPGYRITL

[3] = Trypanosoma cruzi growth suppression in host cells – NIH3T3 host cells, beta-gal luminescence, confirmation (AID 2044); format: functional, cell-based;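 note: intracellular parasites grown in NIH/3T3 mouse fibroblasts as host cells; luminescent beta-galactosidase reporter signal from transgenic T. cruzi replicating inside host cells; inhibitors lower the luminescence signal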
CAAX prenyl protease 1 = CAAX prenyl protease 1 (Saccharomyces cerevisiae S288c, UniProt P47154); experiment: yeast CAAX protease Ste24 inhibition – biochemical, S. cerevisiae, plate reader, cherry-pick, dose response (AID 488815)
Chain of CAAX prenyl protease 1 (P47154 whole entry): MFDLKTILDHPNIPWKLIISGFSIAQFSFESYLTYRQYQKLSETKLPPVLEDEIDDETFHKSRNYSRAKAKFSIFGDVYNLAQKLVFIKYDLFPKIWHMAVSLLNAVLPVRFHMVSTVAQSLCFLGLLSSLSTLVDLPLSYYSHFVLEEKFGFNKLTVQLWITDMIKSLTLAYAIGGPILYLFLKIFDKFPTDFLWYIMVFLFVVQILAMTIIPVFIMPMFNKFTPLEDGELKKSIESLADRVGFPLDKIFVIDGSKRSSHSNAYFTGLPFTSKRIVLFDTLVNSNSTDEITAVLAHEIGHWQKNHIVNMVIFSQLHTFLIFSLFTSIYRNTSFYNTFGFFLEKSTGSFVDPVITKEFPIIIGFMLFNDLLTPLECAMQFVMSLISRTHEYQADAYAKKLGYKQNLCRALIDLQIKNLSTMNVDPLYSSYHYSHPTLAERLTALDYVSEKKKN

Jurkat = experiment: blockers of NF-kB activation in T cells – Jurkat, luciferase reporter, luminescence, B- and T-cell, dose response (AID 489004); format: functional, cell-based; details: Homo sapiens;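 note: NF-kB luciferase reporter Jurkat cells stimulated with PMA plus ionomycin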
[4] = target: T2, Short transient receptor potential channel 4 (Mus musculus, UniProt Q9QUQ5); experiment: block of DAMGO-driven TRPC4 calcium entry – cell-based, HEK293 TRPC4/mu-opioid, Fluo-4 calcium, dose response (AID 434942); format: functional;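 note: potency of inhibitors blocking the TRPC4 calcium response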
T2 sequence (Q9QUQ5 whole entry): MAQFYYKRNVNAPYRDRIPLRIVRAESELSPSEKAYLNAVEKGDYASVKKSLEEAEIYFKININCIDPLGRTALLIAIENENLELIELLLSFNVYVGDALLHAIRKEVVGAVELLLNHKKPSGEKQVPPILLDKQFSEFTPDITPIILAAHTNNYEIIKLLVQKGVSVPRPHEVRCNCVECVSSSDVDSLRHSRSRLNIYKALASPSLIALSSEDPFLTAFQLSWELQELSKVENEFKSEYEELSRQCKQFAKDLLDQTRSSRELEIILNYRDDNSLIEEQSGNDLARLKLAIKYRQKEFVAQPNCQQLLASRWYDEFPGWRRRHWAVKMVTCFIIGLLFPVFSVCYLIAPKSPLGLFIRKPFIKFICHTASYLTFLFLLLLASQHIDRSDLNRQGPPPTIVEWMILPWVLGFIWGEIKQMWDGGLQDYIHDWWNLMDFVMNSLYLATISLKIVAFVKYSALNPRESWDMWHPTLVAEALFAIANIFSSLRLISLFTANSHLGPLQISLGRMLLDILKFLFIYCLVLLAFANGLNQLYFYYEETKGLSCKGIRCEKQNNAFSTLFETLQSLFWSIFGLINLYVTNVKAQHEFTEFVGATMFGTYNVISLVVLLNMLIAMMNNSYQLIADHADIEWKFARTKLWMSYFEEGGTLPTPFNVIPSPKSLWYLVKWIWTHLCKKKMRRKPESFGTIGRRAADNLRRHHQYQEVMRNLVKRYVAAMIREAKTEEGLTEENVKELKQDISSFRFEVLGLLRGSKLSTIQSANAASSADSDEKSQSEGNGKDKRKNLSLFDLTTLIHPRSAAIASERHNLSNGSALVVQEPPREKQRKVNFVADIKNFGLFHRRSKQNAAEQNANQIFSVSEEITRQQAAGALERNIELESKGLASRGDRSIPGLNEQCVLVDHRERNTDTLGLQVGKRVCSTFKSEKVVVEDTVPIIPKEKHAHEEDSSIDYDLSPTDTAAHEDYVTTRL

[5] = NIH3T3 cell viability loss – ATP luminescence, mouse fibroblasts, counter-screen, dose response (AID 2010); format: functional, cell-based;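 note: cells exposed to compound for about 90 hours before reading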
CAAX prenyl protease 2 [6] = target: T3, CAAX prenyl protease 2 (Homo sapiens, UniProt Q9Y256); experiment: inhibition of Ras-converting CAAX protease Rce1 – biochemical, yeast membranes, quenched-peptide fluorescence, cherry-pick, dose response (AID 588849)
T3 sequence (Q9Y256 whole entry): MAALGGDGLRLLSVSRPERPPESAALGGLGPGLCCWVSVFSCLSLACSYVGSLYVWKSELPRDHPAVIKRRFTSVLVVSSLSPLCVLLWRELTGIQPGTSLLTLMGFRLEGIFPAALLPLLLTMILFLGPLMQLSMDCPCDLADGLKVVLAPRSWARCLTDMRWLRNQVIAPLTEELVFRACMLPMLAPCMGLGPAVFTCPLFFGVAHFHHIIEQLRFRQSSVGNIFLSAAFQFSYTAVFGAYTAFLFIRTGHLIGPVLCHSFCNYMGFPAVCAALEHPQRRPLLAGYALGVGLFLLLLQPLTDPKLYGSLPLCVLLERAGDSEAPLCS

[7] = viability loss in HEK293 cells – cell-based, plate reader, cherry-picked samples, cytotoxicity control, dose response (AID 743446); format: functional
[8] = target: Heat shock protein HSP 90-alpha (Homo sapiens, UniProt P07900); format: functional, organism-based
[9] = Luminescence Cell-Based Dose Confirmation HTS to Identify Inhibitors of Platelet Dense Granule Release. [Related pubchem assays: 1663 (Primary HTS), 1678 (Summary of Project)]; format: functional
[10] = loss of viability in HepG2 cells – cell-based, CellTiter-Glo, cherry-picked, cytotoxicity control for Shn3 inhibitor project, dose response (AID 624134); format: functional
[11] = reduction of Shn3 3'UTR-driven luciferase in osteoblasts – cell-based, Clone20 osteoblasts, firefly luciferase, cherry-picked, dose response (AID 624132); format: functional;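 note: firefly luciferase luminescence from reporter carrying the Shn3 3'UTR in osteoblasts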
[12] = target: Luciferin 4-monooxygenase (Photinus pyralis, UniProt P08659); experiment: inhibition of purified Photinus pyralis luciferase – biochemical, luminescence, dose response (AID 1891)
Chain of Luciferin 4-monooxygenase (P08659 whole entry): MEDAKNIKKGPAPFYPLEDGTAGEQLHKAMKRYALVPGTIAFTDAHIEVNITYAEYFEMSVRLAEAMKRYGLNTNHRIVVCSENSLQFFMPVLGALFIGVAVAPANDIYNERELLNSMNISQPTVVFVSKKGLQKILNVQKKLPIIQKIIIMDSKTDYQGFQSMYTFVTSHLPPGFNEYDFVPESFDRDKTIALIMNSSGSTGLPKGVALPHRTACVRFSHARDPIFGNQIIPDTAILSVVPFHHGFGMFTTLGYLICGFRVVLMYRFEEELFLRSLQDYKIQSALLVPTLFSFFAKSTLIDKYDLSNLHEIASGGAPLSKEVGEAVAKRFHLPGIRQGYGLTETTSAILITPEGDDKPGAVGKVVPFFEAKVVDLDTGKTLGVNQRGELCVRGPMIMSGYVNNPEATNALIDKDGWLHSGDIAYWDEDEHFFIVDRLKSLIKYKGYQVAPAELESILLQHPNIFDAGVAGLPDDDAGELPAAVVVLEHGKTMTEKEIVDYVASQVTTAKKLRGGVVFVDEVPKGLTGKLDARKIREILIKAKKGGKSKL

[13] = toxicity toward HepG2 liver cells – cell-based, plate reader, cherry-pick, antagonist series, cytotoxicity control, dose response (AID 743416); format: functional
[14] = A549 cell cytotoxicity, dose response, cytotoxicity control, plate reader, cherry-pick, antagonist series (AID 743412); format: functional, cell-based
[15] = blockers of bursicon-stimulated LGR2 cAMP reporter – cell-based, HEK293, CRE-luciferase reporter, cherry pick, set 2, dose response (AID 743343); format: functional;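 note: transfected cells were stimulated with diluted bursicon conditioned medium after compound addition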
[16] = blockade of melanocortin 4 receptor signaling – cell-based, plate reader, cherry pick, counter-screen for LGR2 antagonist project, dose response (AID 743444); format: functional;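 note: transfected HEK 293 cells stimulated with alpha-MSH peptide; potency of inhibitors of the alpha-MSH evoked signal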
[17] = non-specific 3'UTR reporter inhibition in Clone20-Shn3RL – cell-based, Renilla luciferase, cherry-picked, counter-screen for Shn3 inhibitor project, dose response (AID 624133); format: functional
[18] = target: Glucose-6-phosphate 1-dehydrogenase (Homo sapiens, UniProt P11413); experiment: inhibition of Homo sapiens G6PD, dose series – biochemical, fluorescence, selectivity assay for P. falciparum G6PD inhibitor project, dose response (AID 504792); format: functional
Chain of Glucose-6-phosphate 1-dehydrogenase (P11413 whole entry): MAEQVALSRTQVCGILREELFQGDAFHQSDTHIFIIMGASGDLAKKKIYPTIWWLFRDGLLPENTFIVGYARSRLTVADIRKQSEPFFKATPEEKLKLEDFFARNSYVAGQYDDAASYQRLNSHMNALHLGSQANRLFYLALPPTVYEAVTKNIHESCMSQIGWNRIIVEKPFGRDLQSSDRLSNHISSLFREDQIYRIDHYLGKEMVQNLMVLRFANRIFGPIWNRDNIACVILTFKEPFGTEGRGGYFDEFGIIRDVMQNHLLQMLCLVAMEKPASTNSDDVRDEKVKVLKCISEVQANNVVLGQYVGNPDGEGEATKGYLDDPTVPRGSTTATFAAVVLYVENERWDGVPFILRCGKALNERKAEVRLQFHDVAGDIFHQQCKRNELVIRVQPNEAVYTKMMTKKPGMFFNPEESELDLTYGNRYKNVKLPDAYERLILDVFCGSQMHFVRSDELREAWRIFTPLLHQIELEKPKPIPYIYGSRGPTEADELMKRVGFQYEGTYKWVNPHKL

Protein RecA = target: T4, Protein RecA (Mycobacterium tuberculosis, UniProt P9WHJ3); experiment: Fluorescence Cell-Free Homogeneous Dose Retest to Identify Inhibitors of RecA-Intein Splicing Activity. [Related pubchem assays (depositor defined):AID2097, AID2223, AID489010, AID492950]; format: functional
T4 sequence (P9WHJ3 whole entry): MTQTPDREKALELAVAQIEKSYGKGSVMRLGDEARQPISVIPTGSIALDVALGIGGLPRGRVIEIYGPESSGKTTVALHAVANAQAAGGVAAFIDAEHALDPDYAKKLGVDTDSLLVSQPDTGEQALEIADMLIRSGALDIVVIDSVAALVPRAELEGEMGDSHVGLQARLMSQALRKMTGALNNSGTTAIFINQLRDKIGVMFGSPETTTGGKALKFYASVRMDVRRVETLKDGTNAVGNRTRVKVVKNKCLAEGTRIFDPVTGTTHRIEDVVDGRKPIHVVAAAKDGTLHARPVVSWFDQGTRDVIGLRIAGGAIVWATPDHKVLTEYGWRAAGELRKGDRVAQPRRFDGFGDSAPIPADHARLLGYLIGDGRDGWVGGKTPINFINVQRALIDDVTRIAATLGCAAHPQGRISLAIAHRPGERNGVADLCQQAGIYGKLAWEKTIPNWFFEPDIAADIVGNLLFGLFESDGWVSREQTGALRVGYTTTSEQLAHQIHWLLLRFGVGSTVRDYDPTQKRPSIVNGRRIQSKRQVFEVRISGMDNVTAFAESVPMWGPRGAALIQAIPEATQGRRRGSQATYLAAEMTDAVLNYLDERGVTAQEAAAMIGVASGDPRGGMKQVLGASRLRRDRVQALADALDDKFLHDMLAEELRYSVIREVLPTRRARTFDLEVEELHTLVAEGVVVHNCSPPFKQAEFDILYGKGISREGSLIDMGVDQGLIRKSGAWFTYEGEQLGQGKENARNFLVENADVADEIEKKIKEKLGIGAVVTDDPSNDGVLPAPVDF

[19] = target: T5, Replicative DNA helicase DnaB (Mycobacterium tuberculosis, UniProt P9WMR3); experiment: DnaB intein splicing inhibitors, dose response, biochemical, cell-free fluorescence (AID 449749); format: functional
T5 sequence (P9WMR3 whole entry): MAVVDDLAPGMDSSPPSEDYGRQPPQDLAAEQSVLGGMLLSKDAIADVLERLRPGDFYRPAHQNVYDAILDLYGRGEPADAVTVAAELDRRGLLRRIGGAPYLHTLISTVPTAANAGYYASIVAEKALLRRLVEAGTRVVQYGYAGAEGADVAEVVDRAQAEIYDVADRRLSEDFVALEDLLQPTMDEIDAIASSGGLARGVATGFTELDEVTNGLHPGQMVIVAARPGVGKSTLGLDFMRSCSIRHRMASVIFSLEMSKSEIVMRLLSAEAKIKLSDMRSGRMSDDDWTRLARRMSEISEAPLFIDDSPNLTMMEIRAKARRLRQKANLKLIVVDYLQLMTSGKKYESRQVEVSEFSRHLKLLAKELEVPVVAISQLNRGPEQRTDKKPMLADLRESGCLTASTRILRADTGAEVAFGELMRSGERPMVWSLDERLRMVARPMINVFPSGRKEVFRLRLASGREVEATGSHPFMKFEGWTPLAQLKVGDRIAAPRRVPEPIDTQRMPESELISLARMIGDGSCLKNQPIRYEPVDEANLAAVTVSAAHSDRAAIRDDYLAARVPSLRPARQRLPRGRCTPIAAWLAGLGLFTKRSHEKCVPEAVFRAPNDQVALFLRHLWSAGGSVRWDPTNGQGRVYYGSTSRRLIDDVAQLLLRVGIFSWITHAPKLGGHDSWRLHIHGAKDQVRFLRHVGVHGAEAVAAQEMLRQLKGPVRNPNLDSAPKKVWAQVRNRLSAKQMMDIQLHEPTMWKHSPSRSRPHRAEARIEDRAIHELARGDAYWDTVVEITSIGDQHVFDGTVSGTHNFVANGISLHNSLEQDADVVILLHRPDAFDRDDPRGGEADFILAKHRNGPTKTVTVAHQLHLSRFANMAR

Chain of Trypsin (P00761 whole entry): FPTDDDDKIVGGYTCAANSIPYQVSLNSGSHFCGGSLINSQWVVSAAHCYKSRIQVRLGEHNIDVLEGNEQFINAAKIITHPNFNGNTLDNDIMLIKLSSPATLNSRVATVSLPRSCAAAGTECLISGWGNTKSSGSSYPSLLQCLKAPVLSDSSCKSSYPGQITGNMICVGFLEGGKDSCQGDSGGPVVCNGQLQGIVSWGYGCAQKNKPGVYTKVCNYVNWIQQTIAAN

CCCCC[n+]1cccc2c3ccccc3ccc21
> 30 µM (not active): EC50 [5]
inactive: IC50 [1] > 80 µM | AC50 (CAAX prenyl protease 2 [2]) > 100 µM | IC50 (Jurkat) > 80 µM
active: AC50 (Trypsin) 8.59 µM | AC50 (INS1) 4.56 µM | EC50 [3] 0.466 µM | AC50 (CAAX prenyl protease 1) 4.72 µM | EC50 [4] 3.35 µM | AC50 (CAAX prenyl protease 2 [6]) 7.74 µM

COc1ccc(-c2nc(-c3ccccn3)no2)cc1
active: AC50 [7] 3.26 µM | AC50 [8] 20.4 µM | AC50 (INS1) 3.81 µM | EC50 [9] 2.15 µM | AC50 [10] 7.01 µM | IC50 (Jurkat) 0.88 µM | AC50 [11] 1.92 µM | EC50 [12] 0.548 µM | AC50 [13] 3.7 µM | AC50 [14] 3.8 µM | AC50 [15] 0.415 µM | AC50 [16] 0.504 µM | AC50 [17] 26.9 µM
inactive: IC50 [1] > 80 µM

Cc1ccc(S(=O)(=O)N(C(=O)c2ccncc2)c2ccc(OC(=O)c3ccncc3)c3ccccc23)cc1
inactive: IC50 [18] > 80 µM
active: EC50 (Protein RecA) 0.315 µM | AC50 [19] 1.51 µM

C[n+]1ccc(-c2ccccc2)c2ccccc21
active: AC50 (Trypsin) 23.1 µM | AC50 (CAAX prenyl protease 2 [2]) 54.7 µM | AC50 (CAAX prenyl protease 1) 2.18 µM | AC50 (CAAX prenyl protease 2 [6]) 5.8 µM
